The experiment deals with P388 leukemia ip, CD2F1 mice, survival T/C. The experiment in a line: NCI In Vivo Anticancer Drug Screen. Data for tumor model P388 Leukemia (intraperitoneal) in CD2F1 (CDF1) mice. The following applies: endpoint: median survival time, higher = longer survival. The method in brief:
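Mice carrying the transplanted tumor received test compound or vehicle. Survival was recorded in each group, and the value is the treated-group measurement divided by that of the vehicle-treated control group.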

Setting [1] is: dose: 50.0 mg/kg/injection, schedule: Q01DX005 (ip), vehicle: Klucel (hydroxypropylcellulose) (HPC).
The mark [2] stands for this setting: dose: 100.0 mg/kg/injection, schedule: Q01DX005 (ip), vehicle: Klucel (hydroxypropylcellulose) (HPC).
Where [3] appears, read: dose: 200.0 mg/kg/injection, schedule: Q01DX005 (ip), vehicle: Klucel (hydroxypropylcellulose) (HPC).
Setting [4] is: dose: 6.25 mg/kg/injection, schedule: Q01DX009 (ip), vehicle: saline with Tween-80.
[5] abbreviates: dose: 12.5 mg/kg/injection, schedule: Q01DX009 (ip), vehicle: saline with Tween-80.
Setting [6] is: dose: 50.0 mg/kg/injection, schedule: Q01DX005 (ip), vehicle: saline.
[7] abbreviates: dose: 200.0 mg/kg/injection, schedule: Q01DX009 (ip), vehicle: saline with Tween-80.
Setting [8] is: dose: 50.0 mg/kg/injection, schedule: Q01DX009 (ip), vehicle: saline with Tween-80.
The mark [9] stands for this setting: dose: 100.0 mg/kg/injection, schedule: Q01DX009 (ip), vehicle: saline with Tween-80.
The mark [10] stands for this setting: dose: 25.0 mg/kg/injection, schedule: Q01DX009 (ip), vehicle: Klucel (hydroxypropylcellulose) (HPC).
The mark [11] stands for this setting: dose: 50.0 mg/kg/injection, schedule: Q01DX009 (ip), vehicle: Klucel (hydroxypropylcellulose) (HPC).
Setting [12] is: dose: 60.0 mg/kg/injection, schedule: Q01DX005 (ip), vehicle: saline with Tween-80.
The mark [13] stands for this setting: dose: 120.0 mg/kg/injection, schedule: Q01DX005 (ip), vehicle: saline with Tween-80.
[14] abbreviates: dose: 240.0 mg/kg/injection, schedule: Q01DX005 (ip), vehicle: saline with Tween-80.
[15] abbreviates: dose: 100.0 mg/kg/injection, schedule: Q01DX009 (ip), vehicle: Klucel (hydroxypropylcellulose) (HPC).

“And” between values parts separate entries of the source, which are not always exact repeats. Identical values can stand only once. Inconclusive results and toxic doses are left out.

For the compound `CCCCCCn1[nH]nc(C(=O)OC)c1=O` (tested in a mixture with another compound), the T/C reads like this: under setting [1], 94 % of control; under setting [2], 87 % of control; under setting [3], 92 % of control.
On to `C=C1C(=O)OC2CC(C)C3CC(O)OC(O)C3(C)CC12` (stereo unspecified), for which the T/C runs as follows: (dose: 1.56 mg/kg/injection, schedule: Q01DX009 (ip), vehicle: saline) 115 % of control; (dose: 3.12 mg/kg/injection, schedule: Q01DX009 (ip), vehicle: saline with Tween-80) 102 % of control; (dose: 3.13 mg/kg/injection, schedule: Q01DX009 (ip), vehicle: saline) 117 % of control; under setting [4], 107 % of control; under setting [5], 99 % of control and 113 % of control.
Turning to `CC1OP(=S)(S)OC1C` (stereo unspecified), the T/C is, setting by setting: under setting [6], 95 % of control; (dose: 100.0 mg/kg/injection, schedule: Q01DX005 (ip), vehicle: saline) 100 % of control.
In the case of `O=c1c2ccccc2[nH]c2c([N+](=O)[O-])ccc(Oc3ccc(CCc4ccc(Oc5ccc([N+](=O)[O-])c6[nH]c7ccccc7c(=O)c56)cc4)cc3)c12`, the T/C is, setting by setting: under setting [4], 101 % of control; under setting [5], 100 % of control; (dose: 25.0 mg/kg/injection, schedule: Q01DX009 (ip), vehicle: saline with Tween-80) 100 % of control; under setting [7], 91 % of control.
Consider `[Cl][Sn]([c]1ccccc1)[c]1ccccc1`, for which the T/C (dose: 1.8 mg/kg/injection, schedule: Q03HX015 (ip), vehicle: saline) is 150 % of control; the T/C (dose: 2.7 mg/kg/injection, schedule: Q03HX015 (ip), vehicle: saline) is 152 % of control; the T/C (dose: 3.12 mg/kg/injection, schedule: Q01DX009 (ip), vehicle: saline) was 86 % of control; the T/C (dose: 4.0 mg/kg/injection, schedule: Q03HX015 (ip), vehicle: saline) is 163 % of control; the T/C (dose: 5.3 mg/kg/injection, schedule: Q01DX005 (ip), vehicle: saline) is 154 % of control; the T/C (dose: 12.0 mg/kg/injection, schedule: Q01DX005 (ip), vehicle: saline) was 163 % of control. For the same compound, the T/C is 163 % of control (dose: 12.5 mg/kg/injection, schedule: Q01DX009 (ip), vehicle: saline); 114 % of control (dose: 12.5 mg/kg/injection, schedule: Q04DX003 (ip), vehicle: saline); 198 % of control (dose: 25.0 mg/kg/injection, schedule: Q01DX009 (ip), vehicle: saline); 154 % of control (dose: 100.0 mg/kg/injection, schedule: Q04DX003 (ip), vehicle: saline).
Consider `CCCC1OC(C)(Cc2ccccc2)OCC1CC` (stereo unspecified), for which the T/C is 103 % of control (dose: 100.0 mg/kg/injection, schedule: Q01DX009 (ip), vehicle: saline); 113 % of control (dose: 200.0 mg/kg/injection, schedule: Q01DX009 (ip), vehicle: saline); 109 % of control (dose: 400.0 mg/kg/injection, schedule: Q01DX009 (ip), vehicle: saline).
`CCCCCCCCCCSCC(N)C(=O)OCC` (stereo unspecified): the T/C under setting [8] was 99 % of control and the T/C under setting [9] was 94 % of control.
In the case of `Cc1cccc(C(O)c2cnc(C)n2Cc2ccccc2)c1` (stereo unspecified), the T/C is 101 % of control (dose: 60.0 mg/kg/injection, schedule: Q01DX005 (ip), vehicle: Klucel (hydroxypropylcellulose) (HPC)); 109 % of control (dose: 120.0 mg/kg/injection, schedule: Q01DX005 (ip), vehicle: Klucel (hydroxypropylcellulose) (HPC)); 100 % of control (dose: 240.0 mg/kg/injection, schedule: Q01DX005 (ip), vehicle: Klucel (hydroxypropylcellulose) (HPC)).
For `CCCCCCCCCCCCCCCCCCN(C)C`, the T/C is, setting by setting: under setting [10], 100 % of control; under setting [11], 101 % of control.
For `C[N+]1=C(c2ccc[nH]2)CC(C(=O)[O-])CC1` (stereo unspecified), the T/C under setting [12] was 100 % of control, the T/C under setting [13] was 106 % of control and the T/C under setting [14] is 102 % of control.
Take `CCCCCCCCCCCC#CC(=O)O`: the T/C under setting [8] is 110 % of control, the T/C under setting [9] is 102 % of control and the T/C under setting [7] was 105 % of control.
With `O=c1cc(-c2ccccc2)[nH]c(=S)[nH]1`, the T/C by setting is: (dose: 50.0 mg/kg/injection, schedule: Q01DX001 (ip), vehicle: Klucel (hydroxypropylcellulose) (HPC)) 103 % of control; (dose: 100.0 mg/kg/injection, schedule: Q01DX001 (ip), vehicle: Klucel (hydroxypropylcellulose) (HPC)) 100 % of control; (dose: 200.0 mg/kg/injection, schedule: Q01DX001 (ip), vehicle: Klucel (hydroxypropylcellulose) (HPC)) 99 % of control; (dose: 400.0 mg/kg/injection, schedule: Q01DX001 (ip), vehicle: Klucel (hydroxypropylcellulose) (HPC)) 106 % of control.
Take `C[Si](C)(C)Cc1ccccc1C(=O)O`: the T/C was 100 % of control under setting [12], 103 % of control under setting [13] and 94 % of control under setting [14].
As to `c1cc[c]([Ge]([O][Ge]([c]2ccccc2)[c]2ccccc2)[c]2ccccc2)cc1.c1cc[c]([Ge]([O][Ge]([c]2ccccc2)[c]2ccccc2)[c]2ccccc2)cc1`, the T/C is, setting by setting: under setting [1], 89 % of control; under setting [2], 91 % of control; under setting [3], 89 % of control.
As to `Cc1nnc(CN2CCOCC2)n1-c1ccc(Cl)cc1C(=O)c1ccccc1`, the T/C is 86 % of control under setting [10], 96 % of control under setting [11] and 105 % of control under setting [15].
With `CCCCCCCCCCCCCCCCCC(=O)OCCN(C=O)C[n+]1ccccc1`, the T/C by setting is: (dose: 100.0 mg/kg/injection, schedule: Q04DX002 (ip), vehicle: saline) 93 % of control; (dose: 200.0 mg/kg/injection, schedule: Q04DX002 (ip), vehicle: saline) 120 % of control.
As for `CCOC(=O)C1(n2[nH]c(=O)n(-c3ccccc3)c2=O)CC(C)OC1=O` (stereo unspecified), the T/C was 94 % of control under setting [11]; 91 % of control under setting [15]; 91 % of control (dose: 200.0 mg/kg/injection, schedule: Q01DX009 (ip), vehicle: Klucel (hydroxypropylcellulose) (HPC)).
On to `O=c1c2ccccc2nc2n1CCC/C2=C\c1ccc2c(c1)OCO2`, for which the T/C (dose: 91.75 mg/kg/injection, schedule: Q04DX002 (ip), vehicle: Klucel (hydroxypropylcellulose) (HPC)) is 100 % of control; the T/C (dose: 183.5 mg/kg/injection, schedule: Q04DX002 (ip), vehicle: Klucel (hydroxypropylcellulose) (HPC)) was 103 % of control; the T/C (dose: 367.0 mg/kg/injection, schedule: Q04DX002 (ip), vehicle: Klucel (hydroxypropylcellulose) (HPC)) was 102 % of control.
Consider `COc1ccc(CCNC(=O)C(Sc2ccccn2)c2ccccc2)cc1OC` (stereo unspecified), for which the T/C is 94 % of control under setting [1], 103 % of control under setting [2] and 98 % of control under setting [3].
With `O=C(O)C1CCCCC1c1c2ccc(=O)c(O)c-2oc2c(O)c(O)ccc12` (stereo unspecified), the T/C reads like this: (dose: 15.0 mg/kg/injection, schedule: Q01DX005 (ip), vehicle: saline with Tween-80) 102 % of control; (dose: 30.0 mg/kg/injection, schedule: Q01DX005 (ip), vehicle: saline with Tween-80) 102 % of control and 105 % of control; under setting [12], 110 % of control and 111 % of control and 119 % of control; under setting [13], 107 % of control and 111 % of control and 112 % of control; under setting [14], 121 % of control.
As for `CCCCNC(=O)NS(=O)(=O)c1ccc(N)cc1`, the T/C is 100 % of control under setting [8], 105 % of control under setting [9] and 102 % of control under setting [7].
Take `[Cl][Pd][Cl].[NH-]C(CO)C(=O)O` (stereo unspecified): the T/C is 94 % of control (dose: 12.5 mg/kg/injection, schedule: Q01DX005 (ip), vehicle: saline); 102 % of control (dose: 25.0 mg/kg/injection, schedule: Q01DX005 (ip), vehicle: saline); 106 % of control and 98 % of control under setting [6].
For the compound `C/C(CC(C)C(=O)O)=N/NC(N)=O` (stereo unspecified), the T/C reads like this: under setting [1], 97 % of control; under setting [2], 97 % of control; under setting [3], 97 % of control.
As to `C=CCSc1ncnc2c1ncn2C1OC(CO)C(O)C1O` (stereo unspecified), the T/C was 105 % of control (dose: 100.0 mg/kg/injection, schedule: Q04DX003 (ip), vehicle: saline sonified); 115 % of control (dose: 200.0 mg/kg/injection, schedule: Q04DX003 (ip), vehicle: saline sonified); 120 % of control (dose: 400.0 mg/kg/injection, schedule: Q04DX003 (ip), vehicle: saline sonified).

The values are drawn from PubChem BioAssay AID330 (DTP/NCI, 2004).
